Reference: the NIST ThermoML archive (doi:10.1021/je700339f)
± gives the expanded uncertainty stated by the source.

Settings: 101.33 kPa, Liquid

SMILES | mass density (298.15 K) [kg/m3] | mass density (308.15 K) [kg/m3]
CC(=O)N(C)C [N,N-dimethylethanamide] | 937 ± 0.4 | 926.9 ± 0.4
CN(C)C=O [dimethylformamide] | 943.8 ± 0.4 | 934.2 ± 0.4
